We go through 54 compounds from ChEMBL document CHEMBL5441456, “ASAP - SARS-CoV-2 nsp3 macrodomain dose response” (2024).

pIC50: −log10 of the molar value. Where “and” joins values, the source holds several entries; their conditions need not be identical. Equal entries are not always repeated. Some results are limits rather than exact numbers.

The target of this test is Replicase polyprotein 1ab (Severe acute respiratory syndrome coronavirus 2, UniProt P0DTD1). The experiment in a line: Functional biochemical assay to identify treatments for viral infectious disease that targets SARS-COV-2 nsp3 macrodomain, whereby the mechanism of action displaces an ADP-Ribose modified peptide from the binding site. Utilizing a time-resolved fluorescence method to measure binding by reading the emitted fluorescence intensity in two wavelengths.
A word on the pIC50: it is the IC50 on a negative log10 scale, so that one unit is a factor of ten. Low readings indicate a large IC50, high ones a small IC50. Consider `CC(C)[C@@H](Nc1ncnc2[nH]c(C(=O)N[C@H]3CCN(C)C3)cc12)c1ccc2c(c1)S(=O)(=O)CCC2`, for which the pIC50 was 7.27 and 6.97.
Still for that read-out and setting: as for `CCNC(=O)c1cc2c(N[C@@H](c3ccc4c(c3)S(=O)(=O)CCO4)C(C)C)ncnc2[nH]1`, the figure is 7.48 and 7.19 and 7.28 and 7.05 and 7.30 and 7.14; as for `Cc1nn(C)cc1-c1cc2c(N[C@@H](c3ccc4c(c3)S(=O)(=O)CCC4)C(C)C)ncnc2[nH]1`, 4.43 and 4.97; as for `CNC(=O)c1cccc(-c2cc3c(N[C@@H](c4ccc5c(c4)S(=O)(=O)CCC5)C(C)C)ncnc3[nH]2)c1`, 5.17.
Usually IC50 stands for the concentration that inhibits the measured activity by half. Take `CC(C)[C@H](Nc1ncnc2[nH]c(-c3cnn(CC(N)=O)c3)cc12)c1ccc2c(c1)S(=O)(=O)CCC2`: the IC50 was 21 nM and 16 nM and 31 nM (2×) and 15 nM and 23 nM (2×) and 25 nM.
Turning to `CC(C)[C@@H](Nc1ncnc2[nH]c(-c3cnn(C)c3)cc12)c1ccc2c(c1)S(=O)(=O)NCC2`, the pIC50 is 7.15 and 7.24.
In the case of `CC(C)[C@H](Nc1ncnc2[nH]c(-c3cnn(C)c3C#N)cc12)c1ccc2c(c1)S(=O)(=O)CCC2`, the pIC50 is 7.74 and 7.82 and 7.89.
The compound `CC(C)(C)[C@H](Nc1ncnc2[nH]c(-c3cnn(CC(N)=O)c3)cc12)c1ccc2c(c1)OCCO2` showed a negative-log IC50 (pIC50) of 6.91.
Same read-out and setting: as for `CNCc1cc(-c2cc3c(N[C@H](c4ccc5c(c4)S(=O)(=O)CCC5)C(C)C)ncnc3[nH]2)co1`, the figure is 5.65 and 5.72 and 6.01; as for `CC(C)[C@H](Nc1ncnc2[nH]c(-c3cnn(C)c3C#N)cc12)c1ccc2c(n1)NC(=O)CO2`, 7.00 and 7.02.
With `CNCc1cc(-c2cc3c(N[C@@H](c4ccc5c(c4)S(=O)(=O)NCC5)C(C)C)ncnc3[nH]2)co1`, the IC50 was 65 nM and 70 nM (2×) and 108 nM.
Take `CC(C)[C@@H](Nc1ncnc2[nH]ccc12)c1ccc2c(c1)S(=O)(=O)CCO2`: the pIC50 was 6.74.
The same measure, in the same setting: the same measure for `CC(C)[C@H](Nc1ncnc2[nH]c(-c3cnn(C)c3C#N)cc12)c1ccc2c(c1)NC(=O)CO2`: 6.75.
In the case of `CCNC(=O)c1cc2c(N[C@@H](c3ccc4c(c3)S(=O)(=O)NCC4)C(C)C)ncnc2[nH]1`, the negative-log IC50 (pIC50) is 6.91 and 6.93 and 7.02 and 6.71.
In the case of `CC(C)[C@H](Nc1ncnc2[nH]c(-c3cnn(C)c3)cc12)c1ccc2c(c1)S(=O)(=O)CCC2`, the pIC50 is 5.04.
Still for that read-out and setting: as for `CC(C)[C@@H](Nc1ncnc2[nH]c(-c3ccc4nnn(C)c4c3)cc12)c1ccc2c(c1)S(=O)(=O)CCC2`, the figure is 7.00 and 7.07.
Same read-out and setting: the same measure for `CC(C)[C@@H](Nc1ncnc2[nH]c(-c3ccc4cncn4c3)cc12)c1ccc2c(c1)S(=O)(=O)CCC2`: 6.91 and 7.02; for `CC(C)[C@@H](Nc1ncnc2[nH]c(-c3cncc(S(C)(=O)=O)c3)cc12)c1ccc2c(c1)S(=O)(=O)CCC2`: 7.41 and 7.10 and 7.24 and 6.84; for `CNC(=O)c1cccc(-c2cc3c(N[C@H](c4ccc5c(c4)S(=O)(=O)CCC5)C(C)C)ncnc3[nH]2)c1`: 7.85 and 7.59 and 8.00 and 7.70 and 7.66 and 7.57 and 7.54.
Same read-out and setting: as for `CC(C)[C@@H](Nc1ncnc2[nH]c(-c3ccc(S(=O)(=O)NCCO)cc3)cc12)c1ccc2c(c1)S(=O)(=O)CCC2`, the figure is 7.00 and 7.05 and 6.81; as for `CC(C)[C@@H](Nc1c(N)cnc2[nH]ccc12)c1ccc2c(c1)S(=O)(=O)CCC2`, less than 4.00; as for `CNc1nccc(N[C@H](c2ccc3c(c2)S(=O)(=O)CCC3)C(C)C)n1`, less than 4.00.
For the compound `CC(C)[C@H](Nc1ncnc2[nH]cnc12)c1ccc2c(c1)S(=O)(=O)CCC2`, the pIC50 is 6.13.
Same read-out and setting: as for `CCNC(=O)c1cc2c(N[C@@H](c3ccc4ncn(C)c(=O)c4c3)C(C)C)ncnc2[nH]1`, the figure is 6.39 and 6.34; as for `CC(C)[C@H](Nc1ccnc2[nH]ccc12)c1ccc2c(c1)S(=O)(=O)CCC2`, less than 4.00; as for `CCNC(=O)c1cc2c(N[C@@H](c3ccc4c(n3)NC(=O)CO4)C(C)C)ncnc2[nH]1`, 5.97 and 6.24.
The same measure, in the same setting: as for `CCNC(=O)c1cc2c(N[C@@H](C(=O)NC3CCOCC3)C(C)C)ncnc2[nH]1`, the figure is less than 4.00; as for `CCNC(=O)c1cc2c(N[C@@H](c3nc4ccccc4o3)C(C)C)ncnc2[nH]1`, 4.69 and 4.75; as for `CC(C)(C)[C@H](Nc1ncnc2[nH]c(-c3cnn(CC(N)=O)c3)cc12)c1ccc2c(n1)OCCO2`, 4.85 and 4.97.
The same measure, in the same setting: as for `CNC(=O)c1cc2c(N[C@H](c3ccc4c(c3)S(=O)(=O)CCC4)C(C)C)ncnc2[nH]1`, the figure is 5.75; as for `CCNC(=O)c1cc2c(N[C@@H](c3cc4c(cc3Cl)OCO4)C(C)C)ncnc2[nH]1`, 5.21 and 5.31.
Regarding `CNS(=O)(=O)c1cc2c(N[C@@H](c3ccc4c(c3)S(=O)(=O)CCC4)C(C)C)ncnc2[nH]1`, the pIC50 is 5.93.
Consider `CCNC(=O)c1cc2c(N[C@@H](CCc3cccc(NS(C)(=O)=O)c3)C(C)C)ncnc2[nH]1`, for which the pIC50 was less than 4.00.
On the same count and under the same terms, the same measure for `CC(C)[C@H](Nc1ncnc2[nH]c(-c3cnn(CC(N)=O)c3)cc12)c1ccc2c(n1)OCCO2`: 4.93.
The same measure, in the same setting: the same measure for `CC(C)[C@H](Nc1ncnc2[nH]c(C(=O)N[C@H]3CCN(C)C3)cc12)c1ccc2c(c1)S(=O)(=O)CCC2`: 5.50.
On the same count and under the same terms, the same measure for `COC(=O)c1cc2c(N[C@@H](c3ccc4c(c3)CCN4)C(C)C)ncnc2[nH]1`: 4.54 and 4.42 and 4.55; for `CC(C)[C@H](Nc1ncnc2[nH]cc(C(=O)NC3CC3)c12)c1ccc2c(c1)S(=O)(=O)CCC2`: 5.41 and 5.19 and 5.37.
`CC(C)[C@@H](Nc1ncnc2[nH]c(C(=O)NC3CCN(C)CC3)cc12)c1ccc2c(c1)S(=O)(=O)CCC2` showed a pIC50 of 6.68.
On the same count and under the same terms, the same measure for `CCNC(=O)c1cc2c(N[C@@H](c3ccc4c(c3)S(=O)(=O)CCC4)C3CC3)ncnc2[nH]1`: 6.40 and 6.58; for `CCNC(=O)c1cc2c(N[C@@H](c3ccc4c(c3)CCN4C(=O)C3CC3)C(C)C)ncnc2[nH]1`: 4.61.
`CCNC(=O)c1cc2c(N[C@@H](c3cccnc3OCC(F)(F)F)C(C)C)ncnc2[nH]1` showed a pIC50 of less than 4.00.
For the compound `CNC(=O)Cn1cc(-c2cc3c(N[C@H](c4ccc5c(c4)OCCO5)C(C)C)ncnc3[nH]2)cn1`, the pIC50 was 6.67 and 6.65.
The same measure, in the same setting: the same measure for `CC(C)[C@H](Nc1ncnc2[nH]c(C(=O)N[C@@H]3CCN(C)C3)cc12)c1ccc2c(c1)S(=O)(=O)CCC2`: 5.50 and 5.54 and 5.42 and 5.79; for `CC(C)[C@@H](Nc1ncnc2[nH]c(C3=CCS(=O)(=O)C3)cc12)c1ccc2c(c1)S(=O)(=O)CCC2`: 6.97 and 6.77 and 6.93; for `CC(C)[C@@H](Nc1ncnc2[nH]c(S(C)(=O)=O)cc12)c1ccc2c(c1)S(=O)(=O)CCC2`: 6.00.
Same read-out and setting: the same measure for `Cn1ncc(-c2cc3c(N[C@H](c4ccc5c(n4)OCCO5)C(C)(C)C)ncnc3[nH]2)c1C#N`: 5.30 and 5.63 and 5.51 and 5.62 and 4.97; for `CC(C)[C@@H](Nc1ncnc2[nH]c(C(=O)NC3CN(C)C3)cc12)c1ccc2c(c1)S(=O)(=O)CCC2`: 6.72; for `CCNC(=O)c1cc2c(N[C@@H](CC(=O)Nc3cnn(C(C)C)c3)C(C)C)ncnc2[nH]1`: 4.56 and 4.63.
On the same count and under the same terms, as for `CCNC(=O)c1cc2c(N[C@H](c3ccc4c(c3)S(=O)(=O)CCC4)C(C)C)ncnc2[nH]1`, the figure is 5.89; as for `CC(C)[C@@H](Nc1ncnc2[nH]ccc12)c1ccc2c(c1)SCCO2`, 5.73 and 5.71; as for `CC(C)[C@H](Nc1ncnc2[nH]c(-c3cnn(CC(N)=O)c3)cc12)c1ccc2c(c1)NC(=O)CO2`, less than 4.00.
With `CCNC(=O)c1cc2c(N[C@@H](c3cnc(NC(C)=O)s3)C(C)C)ncnc2[nH]1`, the pIC50 was 5.36 and 5.27 and 5.38.
`CNC(=O)c1cc2c(N[C@H](c3ccc4c(c3)NC(=O)CO4)C(C)C)ncnc2[nH]1`: the pIC50 is 5.27 and 6.02 and 5.87 and 5.97.
Still for that read-out and setting: as for `CC(C)[C@@H](Nc1ncnc2[nH]ccc12)c1ccc2c(c1)[S+]([O-])CCO2` (some centres undefined), the figure is 6.22 and 6.20.
